pIC50: −log10 of the molar value. Like-named read-outs stand apart in the source and are kept apart here. Blank lines part the entries; values can stand above or below the molecule they belong to.
Legend:
ERK2 enzyme = ERK2 enzyme (Homo sapiens (Human), UniProt P28482); assay: Inhibition assay of ERK (Z'-LYTE kinase assay, Ser/Thr 3 peptide substrate); assay type: biochemical; details: In vitro ERK2 enzyme, 100 μM ATP
WM-266-4 cells = assay: Tumor cell line proliferation assay (CellTiter Glo), WM-266-4; details: Homo sapiens, WM 266-4, 96 h, read-out: WM-266-4 (V599D) Cell Proliferation IC50 (nM)
Procedure: (§1) The ability of one or more compounds of the invention to inhibit tumor cell line proliferation was determined according to standard procedures known in the art. For instance, an in vitro cellular proliferation assay was performed to measure the metabolic activity of live cells. […] The cells were incubated at 37° C. under 5% CO2 for two hours to allow for attachment to the plates. Compounds were first diluted in 1:3 dilutions in 100% DMSO at 250× the desired concentration, and then further diluted (1:50) in 10% DMEM growth medium. The diluted compounds were added to the cell plate (25 μL for a 5× dilution) and the cells are incubated with compounds (0.4% DMSO in 10% FBS DMEM) for 96 hours at 37° C. under 5% CO2. The cell control wells were added with vehicle only (0.4% DMSO in 10% FBS DMEM or in 10% FBS RPMI). Each concentration of the compounds was tested in duplicates. After 96 hours of the compound treatment, CellTiter Glo reagent (Promega) was added at a 1:5 dilution to each well of the cell plate and the cell plate was placed at room temperature for 30 minutes. The luminescence of the wells was determined using a Tecan plate reader.

A375 cells = assay: Tumor cell line proliferation assay (CellTiter Glo), A375; assay type: cell-based; details: Homo sapiens, read-out: A375 (V599E) Cell Proliferation IC50
[1] = system: phospho-RSK1 (Thr359/Ser363) in A375 (Braf V600E) cells; assay: Phospho-p90 RSK ELISA using A375 (Braf V600E) cells; assay type: cell-based; details: Homo sapiens, A-375, 2 hours compound treatment, read-out: Cellular Phospho-p90RSK IC50
Procedure: In preparation for the assay, an ELISA plate with the pre-coated goat anti-mouse antibody (Thermo Scientific) was treated with a mouse anti-human RSK1 antibody (monoclonal, Invitrogen) at 1:800 dilution (150 ng/well) in PBS, and the plate was placed on a plate shaker at 4° C. overnight. […] After two hours of the compound treatment, the supernatant was removed from the cell plate, and cells were lysed in 100 μl per well of cell lysis buffer (Cell Signaling Technologies) containing phosphatase and protease inhibitors (Cell Signaling Technologies) on a plate shaker at 4° C. for 20 minutes. The ELISA plate was washed four times with ELISA wash buffer (Thermo Scientific) prior to addition of 100 μL cell lysate. The lysate was incubated on the ELISA plate with gentle shaking at room temperature for 2 hours. The contents of the wells were removed, and the ELISA plate was washed four times with wash buffer, and incubated with 100 μL per well of anti-phospho-RSK1 (Thr359/Ser363) rabbit monoclonal antibody (Millipore) at dilution of 1:1000 in StartingBlock buffer (Thermo Scientific) on a plate shaker at room temperature for 1 hour. The contents of the wells were removed, the ELISA plate was washed four times with wash buffer, and was incubated with 100 μL per well of goat anti-rabbit HRP (Thermo Scientific) at dilution of 1:3000 in StartingBlock buffer (Thermo Scientific) on a plate shaker at room temperature for 1 hour. The contents of the wells were removed, the ELISA plate was washed four times with wash buffer, and then incubated with 100 μL per well of TMB substrate solution (Thermo Scientific) on a plate shaker at room temperature for 20 minutes. Finally, 100 μL of TMB stop solution (Thermo Scientific) was added to each well and the absorbance is measured at 450 nm on a Tecan plate reader.

H358 (Kras, G12C) cells = assay: Tumor cell line proliferation assay (CellTiter Glo), H358; details: Homo sapiens, NCI-H358, 96 h, read-out: H358 (Kras, G12C) Cell Proliferation IC50 (nM)
Procedure: as §1

[2] = control or reference compounds, 5 μM; cited from earlier work
[3] = PBS pH 7.4, 37° C., over the course of 24 hours; cited from earlier work

ERK2 enzyme, sequence (P28482 whole entry): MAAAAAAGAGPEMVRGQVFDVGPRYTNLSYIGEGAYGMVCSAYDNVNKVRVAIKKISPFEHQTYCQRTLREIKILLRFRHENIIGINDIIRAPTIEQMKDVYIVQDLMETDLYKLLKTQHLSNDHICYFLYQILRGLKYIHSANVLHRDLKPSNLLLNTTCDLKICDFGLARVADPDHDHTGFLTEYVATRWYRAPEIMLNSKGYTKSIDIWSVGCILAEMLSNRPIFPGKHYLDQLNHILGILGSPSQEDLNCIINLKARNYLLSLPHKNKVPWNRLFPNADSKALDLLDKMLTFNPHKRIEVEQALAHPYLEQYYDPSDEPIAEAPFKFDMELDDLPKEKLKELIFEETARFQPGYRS

SMILES: Cc1cc(-c2n[nH]c3cc4[nH]c(=O)c(Cc5ccccc5)cc4cc23)ccn1 [Compound 6]
pIC50 (ERK2 enzyme): 6.60 to 7.30
IC50 (WM-266-4 cells): 250 to 1000 nM
pIC50 (A375 cells; A-375, 96 h): 6.00 to 6.60

pIC50 [1]: > 6.60
pIC50 (ERK2 enzyme): > 7.30
pIC50 (A375 cells; A-375, 96 h): > 6.60
IC50 (H358 (Kras, G12C) cells): < 250 nM
SMILES: Cc1cc(-c2n[nH]c3cc4[nH]c(=O)c(C(C)c5ccc(F)cc5)cc4cc23)ccn1 (stereo not shown) [Compound 197]

SMILES: Cc1cc(-c2n[nH]c3cc4[nH]c(=O)c(C(C)c5cccc(Cl)c5)cc4cc23)ccn1 (stereo not shown) [Compound 181]
pIC50 [1]: > 6.60
pIC50 (ERK2 enzyme): 6.60 to 7.30
pIC50 (A375 cells; A-375, 96 hours): > 6.60
IC50 (H358 (Kras, G12C) cells): < 250 nM

SMILES: CCCOc1cc(N)ccc1C(=O)OCCN(CC)CC [propoxycaine]
plasma stability [2]: low plasma stability

SMILES: CC(C)[N+](C)(CCOC(=O)C1c2ccccc2Oc2ccccc21)C(C)C [propantheline]
plasma stability [2]: intermediate plasma stability

SMILES: O=C(O)CCCc1ccc(N(CCCl)CCCl)cc1 [chlorambucil]
chemical stability [3]: largely hydrolyzed

pIC50 [1]: 6.00 to 6.60
pIC50 (ERK2 enzyme): > 7.30
SMILES: O=C1Nc2cc3[nH]nc(-c4ccnnc4)c3cc2CN1Cc1cccc(Cl)c1 [Compound 66]

From patent US9624228B2, “Inhibitors of ERK and methods of use” (KURA ONCOLOGY, INC., priority 2013, dated 2017)
